BindingDB's records for doi:10.1021/jm00095a005 (Pfizer, 1992)

Target: Platelet-activating factor receptor (Oryctolagus cuniculus)
Assay: In vitro inhibition of PAF-induced aggregation of rabbit washed platelets.

Compound | IC50
CCOC(=O)C1=C(c2ccc(-n3c(C(F)(F)F)nc4cnccc43)cc2)N=C(C)C(C(=O)Nc2ccccn2)C1c1ccccc1Cl (stereo unspecified) | 30 nM
CCOC(=O)C1=C(c2ccc(-n3c(C)nc4c(OC)ncnc43)cc2)N=C(C)C(C(=O)Nc2ccccn2)C1c1ccccc1Cl (stereo unspecified) | 270 nM
CCCCc1nc2cnccc2n1-c1ccc(C2=C(C(=O)OCC)C(c3ccccc3Cl)C(C(=O)Nc3ccccn3)C(C)=N2)cc1 (stereo unspecified) | 190 nM
CCOC(=O)C1=C(c2ccc(-n3c(C)nnc3C)cc2)N=C(C)C(C(=O)Nc2ccccn2)C1c1ccccc1Cl (stereo unspecified) | 12 nM
CCOC(=O)C1=C(c2ccc(-n3c(C)nc4cnccc43)cc2)N=C(C)C(C(=O)Nc2ccccn2)C1c1ccccc1OC(F)(F)F (stereo unspecified) | 2.3 nM
CCOC(=O)C1=C(c2ccc(-n3c(C)nc4cnccc43)cc2)N=C(C)C(C(=O)OC)C1c1ccccc1Cl (stereo unspecified) | 1.6 nM
CCOC(=O)C1=C(c2ccc(-n3cnc(C)c3)cc2)N=C(C)C(C(=O)Nc2ccccn2)C1c1ccccc1Cl (stereo unspecified) | 580 nM
CCOC(=O)C1=C(c2ccc(-c3ocnc3C)cc2)N=C(C)C(C(=O)Nc2ccccn2)C1c1ccccc1Cl (stereo unspecified) | 200 nM
CCOC(=O)C1=C(c2ccc(-n3c(C)nc4cccnc43)cc2)N=C(C)C(C(=O)Nc2ccccn2)C1c1ccccc1Cl (stereo unspecified) | 28 nM
CCOC(=O)C1=C(c2ccc(-n3c(C)nc4cnccc43)cc2)N=C(C)C(C(=O)Nc2ccccn2)C1c1cccnc1 (stereo unspecified) | 33 nM
CCOC(=O)C1=C(c2ccc(-n3c(C)nc4cnccc43)cc2)N=C(C)C(C(=O)Nc2ccccn2)C1c1ccc(C#N)cc1 (stereo unspecified) | 25 nM
CCOC(=O)C1=C(c2ccc(-n3c(C)nc4cnccc43)cc2)N=C(C)C(C(=O)Nc2ccccn2)C1c1ccccn1 (stereo unspecified) | 14 nM
CCOC(=O)C1=C(c2ccc(-n3nc(C)cc3C)cc2)N=C(C)C(C(=O)Nc2ccccn2)C1c1ccccc1Cl (stereo unspecified) | > 10000 nM
CCOC(=O)C1=C(c2ccc(-n3c(C)nc4cnccc43)cc2)N=C(C)C(C(N)=O)C1c1ccccc1Cl (stereo unspecified) | 5.6 nM
CCOC(=O)C1=C(c2ccc(-n3c(C)nc4ccncc43)cc2)N=C(C)C(C(=O)Nc2ccccn2)C1c1ccccc1Cl (stereo unspecified) | 22 nM
CCOC(=O)C1=C(c2ccc(-n3c(C)nc4cnccc43)cc2)N=C(C)C(C(=O)Nc2ccccn2)C1c1cccnc1Cl (stereo unspecified) | 13 nM
CCOC(=O)C1=C(c2ccc(-c3c(C)nc4sccn34)cc2)NC(C)=C(C(=O)Nc2ccccn2)C1c1ccccc1Cl (stereo unspecified) | 5 nM
CCOC(=O)C1=C(c2ccc(-n3c(C)nc4cnccc43)cc2)N=C(C)C(C(=O)OC(C)(C)C)C1c1ccccc1Cl (stereo unspecified) | 1.3 nM
CCOC(=O)C1=C(c2ccc(-c3c(C)nc4ccccn34)cc2)N=C(C)C(C(=O)Nc2ccccn2)C1c1ccccc1Cl (stereo unspecified) | 2.1 nM
CCOC(=O)C1=C(c2ccc(-n3cc(C)nc3C)cc2)N=C(C)C(C(=O)Nc2ccccn2)C1c1ccccc1Cl (stereo unspecified) | 13 nM
CCOC(=O)C1=C(c2ccc(-n3c(C)nc4c(C)nc(C)cc43)cc2)N=C(C)C(C(=O)Nc2ccccn2)C1c1ccccc1Cl (stereo unspecified) | 5.9 nM
CCOC(=O)C1=C(c2ccc(-n3c(C)nc4cnccc43)cc2)N=C(C)C(C(=O)Nc2ccccn2)C1c1cccc2c1OCO2 (stereo unspecified) | 3.2 nM
CCOC(=O)C1=C(c2ccc(-n3c(C)nc4cnccc43)cc2)N=C(C)C(C(=O)Nc2ccccn2)C1c1csc2ccccc12 (stereo unspecified) | 3.1 nM
CCOC(=O)C1=C(c2ccc(-n3c(C)nc4cnccc43)cc2)N=C(C)C(C(=O)O)C1c1ccccc1Cl (stereo unspecified) | 14 nM
CCOC(=O)C1=C(c2ccc(-n3ccnc3C)cc2)N=C(C)C(C(=O)Nc2ccccn2)C1c1ccccc1Cl (stereo unspecified) | 23 nM
CCOC(=O)C1=C(c2ccc(-n3c(C)nc4cnccc43)cc2)N=C(C)C(C(=O)NC(C)(C)C)C1c1ccccc1Cl (stereo unspecified) | 3.2 nM
